From US20210161999A1, “COMPOSITIONS AND METHODS RELATED TO OVERCOMING INNATE IMMUNE BARRIERS TO CANCER IMMUNOTHERAPY” (Health Research, Inc., priority 2018, published 2021) come the findings set out here.

Entries after “also recorded” stand apart in the source; their conditions may differ. *1 amine or outer side, *2 acyl side, *3 side chain or, on linkers, in order; H or OH if unused. Where a SMILES comes first, the peptide text is derived from it. Bridges are numbered along the chain shown (N, C = ends). Roman numbers before positions name the chains, in order. [ ]: non-standard residue; d: D form. Actinocin(9to1) = Cc1c2oc3c(C)ccc(C(=O)[*:1])c3nc-2c(C(=O)[*:2])c(N)c1=O; NMeV = CN[C@H](C(=O)O)C(C)C; Sar = CNCC(=O)O

This experiment deals with PMN suppressor phenotype (suppression of anti-CD3/CD28-stimulated T cell proliferation). The experiment in a line: Coculture of PMN with ascites supernatants and anti-CD3/CD28-stimulated T cells; T cell proliferation by [3H] thymidine incorporation. The format is cell-based, human. The note with it: for effect on ascites-induced PMN-mediated suppression: L-arginine 50 μM-1 mM, NAC 10-25 mM, DNase I 50-100 IU (n=3). The protocol: Freshly isolated T cells (1e5) were stimulated with anti-CD3/CD28 Dynabeads (2.5 μl; Thermo Fisher Scientific) and cocultured with autologous PMN (1:1) and ascites supernatants (50% final well volume) in an incubator at 37° C., 5% CO2. After 72 h, [^3H] thymidine (1 μCi per well) was added and allowed to incorporate for 16-18 h. Cells were harvested onto a Filtermat and counted on a Beta counter. Results are expressed as net cpm [calculated by subtracting the average cpm of unstimulated T cells from the average cpm of stimulated T cells].
Where indicated, T cells, PMN, and ascites supernatants underwent various pretreatments. Where indicated, T cells were pretreated for lh with neutralizing antibody against ICAM-I (1-10 μg), IgG1 isotype (1-10 μg), or media (RPMI 1640, 5-10% heat-inactivated FBS, HEPES, sodium pyruvate, non-essential amino acids, and penicillin-streptomycin).
Where indicated, PMN were pretreated for lh with neutralizing antibody against CD11b (1-10 μg), TGF-beta receptor 1 (1-10 μg) or IgG1 isotype (1-10 μg); thapsigargin (THG, 0.5-2 μM), diphenyleneiodonium (DPI, 1-25 μM), N-Formylmethionine-leucyl-phenylalanine (fMLF, 1-100 nM), brefeldin-A (1-10 μg/mL), ER export inhibitor 1 (Exol, 20-75 μM), CI-amidine (10-20 μM), SNARE decoys: TAT-SNAP23 (0.6-0.9 μg/mL), TAT-SYN4 (0.6-0.9 μg/mL), TAT-GST (0.6-0.9 μg/mL) (produced as described in the laboratory of Dr. Kenneth McLeish), puromycin and actinomycin-D (1-5 μg/mL), or with media.
Where indicated, ascites supernatants were pretreated with heat (56° C., lh) to denature heat-labile constituents or proteinase-K (100 μM, 37° C., 12 h) to degrade proteins. Two formulations of compstatin, a peptide C3 inhibitor, were used: CS (250 μM, 30° C., 2 h, Tocris) and Cp40 (1.25-20 μM, 30° C., 2 h), as well as a scramble peptide. In separate studies, ascites supernatants were ultra-centrifuged (100,000g, 4° C., 1.5 h) to separate the membrane-rich (MR-ASC) and membrane-depleted (MD-ASC) fractions. In others, ascites supernatants were pretreated for lh with neutralizing antibody against C5 (0.5-1.0 μg, A217; Quidel, San Diego, Calif.) or C7 (0.5-1.0 μg, A221; Quidel) or IgG1 isotype (0.5-1.0 μg), or with OmCI (0.6-1.2 μM), a peptide C5 inhibitor derived from the saliva of Ornithodoros moubata (35, 36).
(In general: Dividing cells build labelled thymidine or BrdU into new DNA.)

[1] abbreviates: PMN pretreated, fMLF 100 nM, THG 1 μM, DPI 1 μM (n=7).
The mark [2] stands for this setting: added to cocultures, indomethacin 10 μM, zileuton 50 μM, 1-MT 100 μM.
[3] abbreviates: PMN pretreated for 1 h prior to coculture, puromycin 1 μg, D-actinomycin 1 μg (n=8).
The mark [4] stands for this setting: PMN pretreated, brefeldin-A 1-10 μg/mL, Exo1 20-75 μM (n=3).

As to `C/C=C(/C)C(=O)O[C@H]1C(C)=C2[C@H]([C@@H]1OC(=O)CCCCCCC)[C@@](C)(OC(C)=O)C[C@H](OC(=O)CCC)[C@@]1(O)[C@H]2OC(=O)[C@@]1(C)O` [thapsigargin], the “effect on PMN suppressor phenotype” value under setting [1] is “abrogated the PMN suppressor phenotype”.
Turning to `COc1ccc2c(c1)c(CC(=O)O)c(C)n2C(=O)c1ccc(Cl)cc1` [indomethacin], the “effect on PMN suppressor phenotype” value is, setting by setting: under setting [2], “had no effect on the PMN suppressor phenotype”; (added to cocultures, indomethacin 10 μM, zileuton 50 μM, 1-MT 100 μM, listed as Indomethacin) “did not reverse the phenotype”.
On to `CC(=O)N[C@@H](CS)C(=O)O` [N-acetylcysteine], for which the “effect on ascites-induced PMN-mediated suppression” value is on record as “did not reverse ascites-induced PMN-mediated suppression” (added to cocultures) and “did not reverse suppression” (added to cocultures, listed as NAC).
Consider `CC(c1cc2ccccc2s1)N(O)C(N)=O` (stereo not shown) [zileuton], for which the “effect on PMN suppressor phenotype” value under setting [2] is recorded as “did not reverse the phenotype; also recorded: had no effect on the PMN suppressor phenotype”.
Still for that read-out and setting: with `Cn1cc(CC(N)C(=O)O)c2ccccc21` (racemic) [1-methyl-DL-tryptophan] the entry was “did not reverse the phenotype; also recorded: had no effect on the PMN suppressor phenotype”.
For `COc1ccc(C[C@H](N)C(=O)N[C@H]2[C@@H](O)[C@H](n3cnc4c(N(C)C)ncnc43)O[C@@H]2CO)cc1` [puromycin], the “effect on PMN suppressor phenotype” value under setting [3] was “abrogated the PMN suppressor phenotype; also recorded: variable abrogation of the suppressor phenotype”.
On to “N-Formylmethionine-leucyl-phenylalanine [fMLF]”, for which, under setting [1], the “effect on PMN suppressor phenotype” value is “abrogated the PMN suppressor phenotype; also recorded: prevented induction of the PMN suppressor phenotype”.
As for `C[C@H]1CCC/C=C/[C@@H]2C[C@H](O)C[C@H]2[C@H](O)/C=C/C(=O)O1` [brefeldin-A], under setting [4], the “effect on PMN suppressor phenotype” value is “abrogated the PMN suppressor phenotype”.
On to `c1ccc2c(c1)[I+]c1ccccc1-2` [diphenyleneiodonium], for which the “effect on PMN suppressor phenotype” value was “abrogated the PMN suppressor phenotype” under setting [1] and “did abrogate the PMN suppressor phenotype” (PMN pretreated, fMLF 100 nM, THG 1 μM, DPI 1 μM (n=7), listed as DPI).
In the case of `N=C(N)NCCC[C@H](N)C(=O)O` [L-arginine], the “effect on ascites-induced PMN-mediated suppression” value (added to cocultures) was “did not reverse ascites-induced PMN-mediated suppression; also recorded: had no effect on T cell suppression”.
Consider `Cc1c2oc3c(C)ccc(C(=O)N[C@@H]4C(=O)N[C@H](C(C)C)C(=O)N5CCC[C@H]5C(=O)N(C)CC(=O)N(C)[C@@H](C(C)C)C(=O)O[C@@H]4C)c3nc-2c(C(=O)N[C@@H]2C(=O)N[C@H](C(C)C)C(=O)N3CCC[C@H]3C(=O)N(C)CC(=O)N(C)[C@@H](C(C)C)C(=O)O[C@@H]2C)c(N)c1=O` [actinomycin D] (I: T[dV]P[Sar][NMeV] / II: T[dV]P[Sar][NMeV]; ester I:1-I:C, II:1-II:C; linker I:N-II:N via Actinocin(9to1)), for which the “effect on PMN suppressor phenotype” value runs as follows: under setting [3], “variable abrogation of the suppressor phenotype”; (PMN pretreated for 1 h prior to coculture, puromycin 1 μg, D-actinomycin 1 μg (n=8), listed as D-actinomycin) “had more variable effects”.
On to `NC(=O)[C@H](CCCN=C(N)CCl)NC(=O)c1ccccc1` [CI-amidine], for which the “effect on PMN suppressor phenotype” value (PMN pretreated with CI-amidine (10-20 μM) for 1 h prior to coculture (n=3)) is listed as “did not abrogate the PMN suppressor phenotype; also recorded: had no effect on the PMN suppressor phenotype”.
Take `CC[C@H](C)[C@H](N)C(=O)N[C@H]1CSSC[C@@H](C(=O)N[C@H](C(N)=O)[C@@H](C)O)NC(=O)[C@H](CCCN=C(N)N)NC(=O)[C@H](Cc2cnc[nH]2)NC(=O)[C@H](Cc2cnc[nH]2)NC(=O)CNC(=O)[C@H](Cc2c[nH]c3ccccc23)NC(=O)[C@H](CC(=O)O)NC(=O)[C@H](CCC(N)=O)NC(=O)[C@H](C(C)C)NC(=O)[C@H](C(C)C)NC1=O` [CS, compstatin]: the “effect on PMN suppressor phenotype” value is recorded as “abrogated the PMN suppressor phenotype” (added to ASC 2 h prior to coculture with PMN and T cells, CS 250 μM, Cp40 20 μM, scramble peptide 20 μM); “completely abrogated the PMN suppressor phenotype” (added to ASC 2 h prior to coculture with PMN and T cells, CS 250 μM, Cp40 20 μM, scramble peptide 20 μM, listed as compstatin).
On to `COC(=O)c1ccccc1NC(=O)c1ccc(F)cc1` [ER export inhibitor 1], for which the “effect on PMN suppressor phenotype” value reads like this: under setting [4], “abrogated the suppressor phenotype”; (PMN pretreated, brefeldin-A 1-10 μg/mL, Exo1 20-75 μM (n=3), listed as Exo1) “abrogated the PMN suppressor phenotype”.

B1: DNase I: enzyme added to the cocultures to degrade NETs (protein, UniProt P24855 23-282, looked up)
Deoxyribonuclease-1: LKIAAFNIQTFGETKMSNATLVSYIVQILSRYDIALVQEVRDSHLTAVGKLLDNLNQDAPDTYHYVVSEPLGRNSYKERYLFVYRPDQVSAVDSYYYDDGCEPCGNDTFNREPAIVRFFSRFTEVREFAIVPLHAAPGDAVAEIDALYDVYLDVQEKWGLEDVMLMGDFNAGCSYVRPSQWSSIRLWTSPTFQWLIPDSADTTATPTHCAYDRIVVAGMLLRGAVVPDSALPFNFQAAYGLSDQLAQAISDHYPVEVMLK
B1: the “effect on ascites-induced PMN-mediated suppression” value (added to cocultures) is “did not reverse ascites-induced PMN-mediated suppression; also recorded: had no effect on the PMN suppressor phenotype”.

B2: OmCI: peptide C5 inhibitor derived from the saliva of Ornithodoros moubata (protein, UniProt Q5YD59 19-168, looked up)
Complement inhibitor: DSESDCTGSEPVDAFQAFSEGKEAYVLVRSTDPKARDCLKGEPAGEKQDNTLPVMMTFKNGTDWASTDWTFTLDGAKVTATLGNLTQNREVVYDSQSHHCHVDKVEKEVPDYEMWMLDAGGLEVEVECCRQKLEELASGRNQMYPHLKDC
For B2, under “ASC pretreated 1 h with neutralizing Ab against C5 or C7 (0.5-1.0 μg) or OmCI (0.6-1.2 μM) prior to coculture”, the “effect on PMN suppressor phenotype” value is “partially abrogated the PMN suppressor phenotype; also recorded: had a partial abrogating effect on T cell suppression”.
